Patent publication EP4455292A1, “A METHOD FOR DETECTING ECTOINE” (Kaunas University of Technology, priority 2023, dated 2024)

Assays:
AraC-PBAD = settings: prior-art AraC-PBAD sensor, E. coli; cited from earlier work
[1] = tested on: ectoine-inducible system EutR/PeutB; experiment: P. putida-based ectoine biosensor (plasmid pEct-1), RFP reporter fluorescence response; assay type: cell-based
Method: (§1) The fluorescence and cell absorbance were measured at multiple time points. Freshly grown bacterial cells were used to inoculate 2 mL of MM containing appropriate antibiotics in 50-mL centrifuge tubes, and cell cultures were grown overnight at 200 rpm and 30 °C. To obtain logarithmically growing cells, E. coli and P. putida overnight cultures were diluted to 0.05 OD600, respectively, in 5 mL of fresh medium with antibiotic. After the cells were grown to an OD600 of 0.15-0.2, culture aliquots of 142.5 µL were transferred into flat and clear bottom black 96-well plate (Corning Incorporated) and 7.5 µL of ectoine or hydroxyectoine was added to each culture to the required final concentration. Absorbance and fluorescence of cultures were measured using an Infinite Nano+ microplate reader (Tecan). Multiple time point measurements were taken every 10 min over the course of 15-20 hours with a plate reader measuring RFP fluorescence at excitation and emission wavelengths set to 585 nm and 620 nm, respectively, and absorbance at 600 nm. Obtained fluorescence and absorbance values were corrected by subtracting the autofluorescence and absorbance of the culture medium. The absolute normalized fluorescence was determined dividing the fluorescence value by corresponding absorbance value.
The dose-response of biosensors was determined by using single time-point values of fluorescence and absorbance, […] ranging from 0 to 5 mM. […] The fluorescence and absorbance were measured using the same conditions and plate reader as indicated above.
The plasmid pEct-1 was used to characterize biosensor's response to exogenously added ectoine. […] To evaluate biosensor's response to the ectoine, the fluorescence output was quantified.
First, the time course experiments were performed in E. coli and P. putida. […] The fluorescence continued to increase throughout the course of 20-hour time course experiment. Importantly, the uninduced baseline (no ectoine) remained at 0 fluorescence units. […]

[2] = tested on: ectoine-inducible system EutR/PeutB; experiment: E. coli-based ectoine biosensor (plasmid pEct-1), RFP reporter fluorescence response; assay type: cell-based
Method: as §1
The dose-response of biosensors was determined by using single time-point values of fluorescence and absorbance, which were obtained from the multiple time-point measurements 4 h after supplementation of ectoine or hydroxyectoine at different concentrations ranging from 0 to 5 mM. For all assays, the cultures of E. coli and P. putida were prepared as described above, and 142.5 µL of logarithmically growing cells, supplemented with 7.5 µL of ectoine or hydroxyectoine, were cultured in 96-well plate. The fluorescence and absorbance were measured using the same conditions and plate reader as indicated above.
The plasmid pEct-1 was used to characterize biosensor's response to exogenously added ectoine. Experiments were performed to determine the kinetics of induction establishing the time that is required for the system to respond to a change in the ectoine and the dose response of the system. To evaluate biosensor's response to the ectoine, the fluorescence output was quantified.
First, the time course experiments were performed in E. coli and P. putida. Accordingly, cells of both microorganisms harbouring the plasmid pEct-1, were cultivated in minimal medium (MM) at 200 rpm and 30° C (E. coli: Cm 50 mg/L; P. putida: Tet 12.5 mg/L), in the presence and absence of 1 mM ectoine; their optical density (OD600) and RFP fluorescence were monitored over time (Figure 3). In both microorganisms, the RFP expression above the level of the uninduced culture started with 60-90 minutes delay after addition of ectoine (Figure 3 and Figure 4) supporting the notion that the ectoine's catabolic product, the alpha-ADABA, as identified previously [Schultz et al (2017) Environ. Microbiol. 19(11), 4599-4619; Hermann et al (2021) Front. Microbiol. 12, 764731] is the effector that activates gene expression in P. putida. The fluorescence continued to increase throughout the course of 20-hour time course experiment. Importantly, the uninduced baseline (no ectoine) remained at 0 fluorescence units. […] Such "non-leaky" system helps improving the quantification accuracy of reporter fluorescence, but also can be used to control the gene expression that can be harmful or even toxic to a cell. […]

[3] = MM, 10 hours after supplementation, text does not separate the two hosts
[4] = E. coli, MM, 10 hours after supplementation, text does not separate the two hosts

CC1=NC(C(=O)O)CCN1 (stereo not drawn) [ectoine, 1,4,5,6-tetrahydro-2-methyl-4-pyrimidinecarboxylic acid]
minimal ectoine concentration needed for observable induction (AraC-PBAD): around 10 mM
delay of RFP expression above the level of the uninduced culture after addition of ectoine ([1]; 1 mM ectoine, 30° C): 60 to 90 min
limit of detection [1, 3]: below 1 µM
range of linear fluorescence response to exogenously present ectoine [1, 3]: 1 to 20 µM
delay of RFP expression above the level of the uninduced culture after addition of ectoine ([2]; 1 mM ectoine, MM, 30° C, E. coli): 60 to 90 min
fold lower minimal ectoine concentration needed for observable induction (applicant's sensor vs AraC-PBAD sensor) ([2]; E. coli expression organism): around 1000 fold
limit of detection [2, 4]: below 1 µM
range of linear fluorescence response to exogenously present ectoine [2, 4]: 1 to 20 µM
minimal effective concentration ([2]; Escherichia coli, applicant's sensor, E. coli expression organism, read-out: minimal ectoine concentration needed for observable induction): 1 µM
